# In US20240294521A1, “CRYSTALLINE FORMS, COMPOSITIONS CONTAINING SAME, AND METHODS OF THEIR USE” (Repare Therapeutics Inc., priority 2021, published 2024):
# Entries after “also recorded” stand apart in the source; their conditions may differ. Where a name gives a salt, the structure may show the parent alone. Read-outs that look alike come from different tables or passages of the source.
# Legend:
# Type in all cases: physicochemical
# [1] = Dynamic Vapor Sorption analysis (DVS), hygroscopicity; conditions: for Hygroscopicity by DVS: 25° C./0-90% RH change; for form change by XRPD after DVS: after 0-90% RH; for Hygroscopicity: weight increase at 80% RH, 25° C.; for moisture uptake: 0-90% RH change by DVS
# Experimental: Dynamic Vapor Sorption Analysis (DVS)
# • Instrument: DVS Intrinsic, Surface Measurement Systems • Parameters: 25° C., 0-90-0% RH for 2 cycles
# [2] = Water solubility of free form solid states at room temperature; conditions: for XRPD Pattern (solubility measured on); form in water: suspended in water, XRPD after 1 day, PLM after 5 days; for form after suspension in water (microscopic images): five days, room temperature
# Experimental: Example 4. Water Solubility of Free Form Solid States at Room Temperature
# The samples were shaken at 25° C., 200 rpm. XRPD (taken after the crystalline forms were mixed with water, and after 1 day suspended in water) and PLM (after 5 days) were recorded. […] Table 13 summarizes the water solubility of crystalline forms C and F.
# [3] = Storage stability of the crystalline forms (25° C./60% RH, 40° C./75% RH); conditions: for XRPD of the samples after exposure vs t=0: 25° C./60% RH and 40° C./75% RH, closed and open vial, 1, 2 and 4 weeks; for appearance after exposure / solid-form stability (XRPD): one-week exposure to 75% RH at 40° C.
# Experimental: Example 8. Storage Stability of the Crystalline Forms
# The forms were evaluated with a closed vial and an open vial.
# Crystalline Hydrogen Sulfate Form B. […] Approximately 30 mg of crystalline hydrogen sulfate form B was weighed into a 4 mL vial and covered with a KIMWIPE. […]
# Crystalline Sulfate Form A. […] Approximately 30 mg of crystalline sulfate form A was weighed into a 4 mL vial and covered with a KIMWIPE. […]
# [4] = Form stability of crystalline form F in 0.5% methylcellulose (400 cps)/0.02% sodium lauryl sulfate
# Experimental: The samples were evaluated at designated time points and PLM images were recorded up to 7 days.
# [5] = Form stability of crystalline hydrogen sulfate forms A and B in buffered 0.5% methylcellulose/0.02% sodium lauryl sulfate; conditions: 10 mg in 10 mL MC/SLS with (pH 4.5) and without sodium citrate buffer, 500 rpm, room temperature, overnight
# [6] = Dynamic Vapor Sorption analysis (DVS), hygroscopicity; conditions: 2-95% RH
# [7] = Form stability of crystalline hydrogen sulfate forms A and B in buffered 0.5% methylcellulose/0.02% sodium lauryl sulfate
# Experimental: Example 7. Form Stability of Crystalline Hydrogen Sulfate Forms A and B in Buffered 0.5% Methylcellulose (v/v) (400 cps)/0.02% Sodium Lauryl Sulfate (v/v)
# Crystalline hydrogen sulfate form A was used for form stability studies in 0.5% methylcellulose (v/v) (400 cps)/0.02% sodium lauryl sulfate (v/v) with citrate buffer (pH 4.5) with a concentration of 0.1 mg/mL, 0.2 mg/mL, 0.5 mg/mL and 1 mg/mL with and without stirring. HPLC purity was obtained for the solutions at 3 and 7 days.
# An additional sample of crystalline hydrogen sulfate form A in the same buffered formulation was prepared with a concentration of 1 mg/ml and stirred at 500 rpm at room temperature. The sample was monitored every hour for form assessment. The solution was nearly clear at the first 3 hours.
# [8] = 25° C./60% RH, t = 4 weeks, open vial
# [9] = 25° C./60% RH, t = 7 d, open vial
# [10] = 25° C./60% RH, t = 14 d, open vial
# [11] = 40° C./75% RH, t = 4 weeks, closed vial
# [12] = 40° C./75% RH, t = 4 weeks, open vial
# [13] = 40° C./75% RH, t = 7 d, open vial
# [14] = 40° C./75% RH, t = 14 d, open vial
compound,measurement,setting,value
C[C@@H]1COCCN1c1cc([C@]2(O)C[C@H]3CC[C@@H](C2)O3)c2cnn(-c3cc[nH]n3)c2n1 [Crystalline form B],Hygroscopicity by DVS,[1],slightly hygroscopic
same,form change by XRPD after DVS,[1],did not change
same,Hygroscopicity,[1],"Slightly hygroscopic (e.g., ≥0.2% and <2% (Slightly hygroscopic (e.g., ≥0.2% and <2% weight increase at 80% RH, 25° C.))"
same,XRPD Pattern (solubility measured on); form in water,[2]; 25° C.,converted to crystalline form C
same,solubility,"[2]; water, 25 °C, water, thermodynamic from solid, water, 25° C., label = starting material, measured on the form named in the XRPD Pattern column, read-out: Solubility",50 µg/mL
same,form after suspension in water (microscopic images),[2]; water,converted to crystalline form C
C[C@@H]1COCCN1c1cc([C@]2(O)C[C@H]3CC[C@@H](C2)O3)c2cnn(-c3cc[nH]n3)c2n1 [Crystalline form C],Hygroscopicity by DVS,[1],slightly hygroscopic
same,form change by XRPD after DVS,[1],XRPD pattern changed after DVS compared to the starting material and matched with crystalline form J
same,Hygroscopicity,[1],"Slightly hygroscopic (e.g., ≥0.2% and <2% weight (Slightly hygroscopic (e.g., ≥0.2% and <2% weight increase at 80% RH, 25° C.))"
same,solubility,"[2]; water, 25 °C, water, thermodynamic from solid, water, 25° C., read-out: water solubility",~50 µg/mL
C[C@@H]1COCCN1c1cc([C@]2(O)C[C@H]3CC[C@@H](C2)O3)c2cnn(-c3cc[nH]n3)c2n1 [Crystalline form F],XRPD of the samples after exposure vs t=0,[3],matched with the starting materials
same,DSC,[3]; [8],No change
same,HPLC,[3]; [8],99.94%
same,TG weight loss by 170° C.,[3]; [8],4.2 wt % loss
same,XRPD,[3]; [8],No change
same,DSC,[3]; [9],No change
same,HPLC,[3]; [9],99.925%
same,TG weight loss by 170° C.,[3]; [9],4.2 wt % loss
same,XRPD,[3]; [9],No change
same,DSC,[3]; [10],No change
same,HPLC,[3]; [10],100%
same,TG weight loss by 170° C.,[3]; [10],4.2 wt % loss
same,XRPD,[3]; [10],No change
same,DSC,[3]; [11],No change
same,HPLC,[3]; [11],99.94%
same,TG weight loss by 170° C.,[3]; [11],4.2 wt % loss
same,XRPD,[3]; [11],No change
same,DSC,[3]; [12],No change
same,HPLC,[3]; [12],99.94%
same,TG weight loss by 170° C.,[3]; [12],4.2 wt % loss
same,XRPD,[3]; [12],No change
same,DSC,[3]; [13],No change
same,HPLC,[3]; [13],99.922%
same,TG weight loss by 170° C.,[3]; [13],4.2 wt % loss
same,XRPD,[3]; [13],No change
same,DSC,[3]; [14],No change
same,HPLC,[3]; [14],100%
same,TG weight loss by 170° C.,[3]; [14],4.2 wt % loss
same,XRPD,[3]; [14],No change
same,HPLC,[3]; t = 0,99.903%
same,TG weight loss by 170° C.,[3]; t = 0,4.7 wt % loss by
same,Hygroscopicity by DVS,[1],non hygroscopic
same,form change by XRPD after DVS,[1],no form change
same,Hygroscopicity,[1],"Non hygroscopic (e.g., <0.2% weight increase at (Non hygroscopic (e.g., <0.2% weight increase at 80% RH, 25° C.))"
same,aqueous solubility (qualitative),[4],very low
same,form change,"[4]; 0.5% methylcellulose (400 cps)/0.02% sodium lauryl sulfate, room temperature, 7 days, PLM and XRPD",No form change
same,XRPD Pattern (solubility measured on); form in water,[2]; 25° C.,remained unchanged; also recorded: Crystalline form F
same,water solubility,"[2]; water, 25° C.",about 0.046 mg/mL
same,solubility,"[2]; water, 25° C., label = starting material, measured on the form named in the XRPD Pattern column",46 µg/mL
same,form after suspension in water (microscopic images),[2]; water,unchanged
C[C@@H]1COCCN1c1cc([C@]2(O)C[C@H]3CC[C@@H](C2)O3)c2cnn(-c3cc[nH]n3)c2n1 [Crystalline hydrogen sulfate form B],appearance after exposure,[3],"remained a flowable, white powder"
same,solid-form stability (XRPD),[3],no significant changes
same,moisture uptake,[1],15.75%
same,Hygroscopicity by DVS,[1],hygroscopic
same,Hygroscopicity,[1],"Hygroscopic (e.g., ≥2% and <15% weight increase (Hygroscopic (e.g., ≥2% and <15% weight increase at 80% RH, 25° C.))"
same,resulting solid form (XRPD),[5],"convert to crystalline form C; also recorded: The resulting solids were determined to be the free form, crystalline form C as confirmed by XRPD (FIG. 38)"
C[C@@H]1COCCN1c1cc([C@]2(O)C[C@H]3CC[C@@H](C2)O3)c2cnn(-c3cc[nH]n3)c2n1 [Crystalline sulfate form A],appearance after exposure,[3],"remained a flowable, white powder"
same,solid-form stability (XRPD),[3],changed to a mixture of crystalline sulfate form A+another crystalline form of a sulfate salt
same,Hygroscopicity,[6],Hygroscopic
same,weight increase,[6],2.8%
C[C@@H]1COCCN1c1cc([C@]2(O)C[C@H]3CC[C@@H](C2)O3)c2cnn(-c3cc[nH]n3)c2n1 [Crystalline hydrogen sulfate form A],XRPD of the samples after exposure vs t=0,[3],matched with the starting materials
same,HPLC,"[3]; 25° C./60% RH, t = 4 weeks, closed vial",99.92%
same,HPLC,[3]; [8],99.91%
same,HPLC,"[3]; 25° C./60% RH, t = 7 d, closed vial",99.936%
same,HPLC,[3]; [9],99.937%
same,HPLC,"[3]; 25° C./60% RH, t = 14 d, closed vial",100%
same,HPLC,[3]; [10],99.944%
same,HPLC,[3]; [11],99.92%
same,HPLC,[3]; [12],99.91%
same,HPLC,"[3]; 40° C./75% RH, t = 7 d, closed vial",99.938%
same,HPLC,[3]; [13],99.938%
same,HPLC,"[3]; 40° C./75% RH, t = 14 d, closed vial",100%
same,HPLC,[3]; [14],100%
same,HPLC,"[3]; t = 0, baseline before storage",99.902%
same,HPLC purity of solution,"[7]; 0.1 mg/mL, stir, Day 3, MC/SLS with 50 mM citrate buffer (pH 4.5)",99.82%
same,HPLC purity of solution,"[7]; 0.1 mg/mL, stir, Day 7, MC/SLS with 50 mM citrate buffer (pH 4.5)",99.93%
same,HPLC purity of solution,"[7]; 0.1 mg/mL, w/o stir, Day 3, MC/SLS with 50 mM citrate buffer (pH 4.5)",99.82%
same,HPLC purity of solution,"[7]; 0.2 mg/mL, stir, Day 3, MC/SLS with 50 mM citrate buffer (pH 4.5)",99.89%
same,HPLC purity of solution,"[7]; 0.2 mg/mL, stir, Day 7, MC/SLS with 50 mM citrate buffer (pH 4.5)",99.86%
same,HPLC purity of solution,"[7]; 0.2 mg/mL, w/o stir, Day 3, MC/SLS with 50 mM citrate buffer (pH 4.5)",99.89%
same,HPLC purity of solution,"[7]; 0.5 mg/mL, stir, Day 3, MC/SLS with 50 mM citrate buffer (pH 4.5)",99.91%
same,HPLC purity of solution,"[7]; 0.5 mg/mL, stir, Day 7, MC/SLS with 50 mM citrate buffer (pH 4.5)",99.87%
same,HPLC purity of solution,"[7]; 0.5 mg/mL, w/o stir, Day 3, MC/SLS with 50 mM citrate buffer (pH 4.5)",99.91%
same,HPLC purity of solution,"[7]; 1 mg/mL, stir, Day 3, MC/SLS with 50 mM citrate buffer (pH 4.5)",99.93%
same,HPLC purity of solution,"[7]; 1 mg/mL, stir, Day 7, MC/SLS with 50 mM citrate buffer (pH 4.5)",99.94%
same,HPLC purity of solution,"[7]; 1 mg/mL, w/o stir, Day 3, MC/SLS with 50 mM citrate buffer (pH 4.5)",99.89%
same,"form assessment (precipitate, XRPD)","[7]; 1 mg/ml in buffered MC/SLS, stirred at 500 rpm, room temperature, monitored every hour","After 4 hours, crystalline form C was observed; also recorded: Precipitation of the free form, crystalline form C was observed after 3 hours"
same,purity of the solutions (HPLC),"[7]; 0.1-1 mg/mL, with and without stirring, 3 and 7 days, citrate buffer pH 4.5",99.8-99.9%
same,moisture uptake,[1],1.42%
same,Hygroscopicity by DVS,[1],slightly hygroscopic
same,form change by XRPD after DVS,[1],No form change
same,Hygroscopicity,[1],"Slightly hygroscopic (e.g., ≥0.2% and <2% weight (Slightly hygroscopic (e.g., ≥0.2% and <2% weight increase at 80% RH, 25° C.))"
